Assays:
Assay type in all cases: cell-based
[1] = system: PGE2 synthesis by 3T3 fibroblasts; assay: Inhibition of PGE2 synthesis by 3T3 fibroblasts (ELISA); conditions: for [PGE2]: 24 h
From the text: This Example establishes the anti-inflammatory potential of GC-100 by measuring the inhibition of PGE2 synthesis by 3T3 fibroblasts in cell culture.
The cells are nourished in a medium enriched with arachidonic acid which leads to increased secretion of eicosanoids into the medium.
The formation of prostaglandin PGE2 will be followed as a marker of eicosanoid synthesis, because it is a stable molecule secreted preferentially by 3T3 fibroblasts. The anti-inflammatory potential of an active ingredient may then be investigated by following the decrease in secretion of PGE2 in the culture medium.
Quantification of PGE2 will be achieved using an enzyme-linked immunosorbant assay (ELISA). In principle, the PGE2 expressed by the cells in culture medium will compete with enzyme-linked PGE2 for available antibody, which is a constant. The concentration of enzyme-linked PGE2 is also constant and quantified prior to testing. The enzyme linked to PGE2 prior to testing is acetylcholinesterase. Since the quantity of PGE2 expressed by 3T3 cells in culture will vary based on the concentration of GC-100 present, the amount of antibody available to bind to the enzyme-linked PGE2 versus that produced by the 3T3 cells assumes an inverse relationship that is dependent on Brownian motion. After eliminating unreacted PGE2 through washing, substrate is added that binds to the enzyme-PGE2-antibody complex to generate a yellow color that is strongly evident using spectrophotometer set at 412 nm. The amount of light transmitted through the test sample is directly proportional to the intensity of the color change and, consequently, to the concentration of PGE2-enzyme-antibody complex.
Create a mother solution (solution #1) containing complete DMEM, alcohol, and 2×10^5 3T3 fibroblasts for plating onto 25 cm^2 culture dishes. Using a compounding dilution technique, prepare the following solutions, using 5 mL of media per plate: • Solution #2: Solution #1 plus arachidonic acid (10^−3% P/V) • Solution #3: Solution #2 plus indomethacin (0,1,10^−3% P/V) • Solution #4: Solution #2 plus GC-100 0.5% • Solution #5: Solution #2 plus GC-100 1.0%
Incubate all preparations for 24 hours at 37° C. Recover the supernatant media, and if needed deep freeze it at −20° C. before quantification. Count the number of surviving cells using a coulter counter. Establish a calibration curve of the quantity of PGE2. Quantify the supernatant media using an enzyme-linked immunosorbant assay kit specific for PGE2 (Cayman), using a Dynotech microplate reader (MR500) with a filter set at 412 nm. Calculate the % inhibition of PGE2 synthesis. The results are shown in Table 4 and FIG. 10, which is a graph showing mean suppression of PGE2 concentration in test media comprising indomethacin or GC-100.

hepatocytes = assay: Cellular O2 consumption measured with an oxygraph; conditions: 3% GC-100
From the text: Increased cellular respiration may be equated with more efficient use of cellular reserves (e.g., polysaccharides & triglycerides) and improved elimination of metabolic waste. The end result of enhanced cellular respiration is cellular regeneration and restoration of the organ system being evaluated. The activation of cellular respiration can be evaluated using an oxygraph. Since the oxygraph electrode response is directly proportional to the concentration of dissolved O2 in the test media, a measure of cellular O2 consumption can be calculated to yield information on changes in cellular respiration. […] FIG. 4 is a graph showing hepatocyte oxygen consumption in the presence of GC-100 at various concentrations.

[2] = system: human diploid fibroblasts; assay: Fibroblast proliferation (MTT) in suboptimal nutritional medium; conditions: for Cells/well (×10^3): control 15
From the text: This Example quantifies the biostimulating activity of GC-100 on human diploid fibroblasts in a suboptimal nutritional environment.
Cellular proliferation, or mitotic activity, will be assessed using an MTT assay. MTT added to the microtiter wells is metabolized by succinate dehydrogenase of the citric acid cycle. Since the metabolism of MTT is dependent on mitochondrial activity, the amount of metabolite produced can be correlated with the number of viable cells present per well. The metabolite concentration is measured via spectrophotometry, with the absorption value converted to an absolute number that describes cellular growth based on standardized curves. The results are shown in Table 2 and FIG. 5, which is a graph showing fibroblast proliferation in a suboptimal nutritional environment.

[3] = DMEM + AA + 0.5% GC-100, column A
[4] = DMEM + AA + 0.5% GC-100, column B
[5] = DMEM + AA + 0.5% GC-100, column C
[6] = DMEM + AA + 1% GC-100, column A
[7] = DMEM + AA + 1% GC-100, column B
[8] = DMEM + AA + 1% GC-100, column C

In the case of H-Lys-Pro-NH2 [GC-100], the “% change of PGE2 vs DMEM + AA, MEAN” value ([1]; DMEM + AA + 0.5% GC-100) is reported as −13%, the “% change of PGE2 vs DMEM + AA” value [1, 3] is reported as −10.5% and the “[PGE2]” value [1, 3] is reported as 2.81 pg/mL. For the same substance, the “% change of PGE2 vs DMEM + AA” value [1, 4] was −19.7%, the “[PGE2]” value [1, 4] was 2.41 pg/mL and the “% change of PGE2 vs DMEM + AA” value [1, 5] was −8.7%. For the same substance, the “[PGE2]” value [1, 5] was 2.62 pg/mL, the “% change of PGE2 vs DMEM + AA, MEAN” value ([1]; DMEM + AA + 1% GC-100) was −23.9% and the “% change of PGE2 vs DMEM + AA” value [1, 6] was −23.9%. The “[PGE2]” value [1, 6] was 2.39 pg/mL, the “% change of PGE2 vs DMEM + AA” value [1, 7] was −27.7% and the “[PGE2]” value [1, 7] was 2.17 pg/mL. For the same substance, the “% change of PGE2 vs DMEM + AA” value [1, 8] was −20.2%, the “[PGE2]” value [1, 8] was 2.29 pg/mL and the “mean decrease of PGE2 expression below untreated control” value ([1]; GC-100 1%) was 24%. For the same substance, the “average increase in O2 consumption” value (hepatocytes) was 282%±30, the “% increase O2 consumption” value (hepatocytes; 57 mg cells) was 310% and the “Final consumption, ha” value (hepatocytes; 57 mg cells) was 1.259 nm O2/min/mg cells. The “% increase O2 consumption” value (hepatocytes; 58 mg cells) was 260%, the “Final consumption, ha” value (hepatocytes; 58 mg cells) was 1.003 nm O2/min/mg cells and the “% increase O2 consumption” value (hepatocytes; 60 mg cells) was 240%. The “Final consumption, ha” value (hepatocytes; 60 mg cells) was 0.865 nm O2/min/mg cells, the “% increase O2 consumption” value (hepatocytes; 63 mg cells) was 280% and the “Final consumption, ha” value (hepatocytes; 63 mg cells) was 0.879 nm O2/min/mg cells. For the same substance, the “% increase O2 consumption” value (hepatocytes; 64 mg cells) was 320%, the “Final consumption, ha” value (hepatocytes; 64 mg cells) was 0.954 nm O2/min/mg cells and the “Cells/well (×10^3)” value ([2]; 0.1% GC-100) was 17 ×10^3 cells/well. For the same substance, the “Cells/well (×10^3)” value ([2]; 0.5% GC-100) was 20 ×10^3 cells/well, the “Cells/well (×10^3)” value ([2]; 1.0% GC-100) was 21 ×10^3 cells/well and the “Cells/well (×10^3)” value ([2]; 5% GC-100) was 28 ×10^3 cells/well. The “Cells/well (×10^3)” value ([2]; 10% GC-100) was 24 ×10^3 cells/well and the “Cumulative fibroblast proliferation (mitosis)” value ([2]; in the presence of GC-100) was 83%.
